One data set concerns 129S6/SvEv mice. The data set is described as follows: DMM induced OA (PTOA) in 129S6/SvEv mice, oral 3TC or FTC. The format is in vivo, mouse. The settings on record: for Adamts5 mRNA in cartilage / Col10 (Col 10a1) mRNA in cartilage / Line-1 level in cartilage / Mmp13 mRNA in cartilage / miR-365 induction by DMM: DMM mice, qPCR, versus Saline; for body weights, drug versus control treatment groups: DMM or Sham mice, drug in water from 8 weeks old for 4 weeks; for DMM induced proteoglycan loss in surgical knees: histology, drug in water for 4 weeks; for DMM induced OA / cartilage joint degeneration (Safranin O, OARSI quantification): oral administration for 1 month from 2-month-old. From the text: 12956/SvEv strain male mice were purchased from Taconic (https://www.taconic.com/mouse-model/129s6) at their age of 7-week-old. At least 3-day (72-hrs) acclimation period must be given to mice before any further procedures occurred to them. All 12956/SvEv strain mice throughout the studies were male.
129S6/SvEv male mice were chosen for experimental subjects at their age of 8-week-old. To create mouse injury/trauma induced OA model, medial meniscus ligament was transected using a previously described method (Lohmander, L. S., et al. Am J Sports Med 35, 1756-1769 (2007)). Briefly, 8-week-old male mice were anesthetized using either intraperitoneal (IP) injection of Ketamine/Dexmedetomidine or isoflurane to carry out medial parapatellar arthrotomy. Transection was made with a stab knife (Sharpoint™, Cat. 72-1551). At Weeks 12, mice were euthanized and dissected for histological examination as well as cartilage RNA extraction. 12 mice were used for each group/time point.
Paraffin sections were de-paraffinized in 2 changes of xylene, 10 mins each, followed by re-hydration in 2 changes of 100% alcohol, 5 mins each; 2 changes of 95% alcohol, 5 mins each; 70% alcohol for 5 mins. Sections were then rinsed in running tap water for 2 mins before stained with 0.4% fast green solution (Sigma, Cat. F-7258, St. Louis, Mo. 63103 USA) for 2 mins however the latter timing must be empirically controlled to assure desired coloration. Stained sections were then quickly rinsed with 1% acetic acid solution (Sigma, Cat. 695092-500ML-GL, St. Louis, Mo. 63103 USA) for no more than 10-15 sec. 0.1% Safranin O Solution was used for staining proteoglycan however the actual timing must be carefully determined based on actual coloring condition, for maximally 10 mins. After Safranin O staining, sections were submerged in 2 changes of 95% alcohol, 2 mins each, 2 changes of 100% alcohol, 2 mins each for de-hydration. Lastly, sections were cleared in 2 changes of xylene, 2 mins each, and mounted using resinous mounting medium (ACRYMOUNT™, Cat. SL80-4, McKinney, Tex. 75069 USA).
To histologically evaluate OA severity, we quantified Safranin O stained knee sections according to OARSI semi-quantitative system as previously described^3.
Both miRNA and mRNA were extracted using miRNeasy Mini Kit (Qiagen®, Germantown, Md., USA) and reversely transcribed using miScriptIIRT Kit (Qiagen®, Germantown, Md., USA) according to manufacturer's instruction. qPCR was performed using SYBR Green PCR master mix (Qiagen®, Germantown, Md., USA) on a Bio-Rad CFX96 real-time PCR detection system (Bio-Rad®, Hercules, Calif., USA). Amplification conditions are as follows: 95° C. for 10 min, 40 cycles of 95° C. for 10″, 55° C. for 30″, and 72° C. for 30″. 18S ribosomal or GAPDH RNA was used as an internal control gene to normalize the mRNAs level. The ubiquitously expressed snRNA U6 was used as an endogenous control for miRNAs level. Primers were synthesized by Integrated DNA Technologies (http://www.idtdna.com). The primers for miR-365 were purchased from Qiagen. Fold changes of mRNA and miRNAs were calculated by the 2^^(ΔΔCt) method and normalized to 18S/GAPDH or U6 snRNA, respectively.
On the technique in general: In qPCR the cycle at which signal appears reflects the starting amount.

A further data set relates to HIV patients. Description: summary data of NRTI on OA in HIV patients. The data set is classed as in vivo, human. Particulars: HIV patients, older than 50, dosage dependent, both male and female. From the text:
Medical provider diagnoses of ICD-9-CM 715 [osteoarthrosis and allied disorders] include the following definitions: 1) strict=ICD-9-CM 715; 2) expanded=ICD-9-CM 715, 716 [other and unspecified arthropathies], OR 719 [other and unspecified disorders of joint]); and 3) probable=strict OR expanded+respondent-reported prior diagnosis of OA or other arthritis excluding rheumatoid arthritis (RA).

Data set [1] relates to mouse femur articular cartilage. The data set is described as follows: femur explant organ culture with 3TC or FTC, RT-qPCR of articular cartilage. The data set is classed as cell-based. Particulars: 10 μM 3TC or 25 μM FTC, 48 hrs. An excerpt: Femurs were obtained from 21-day-old WT C57BL/6 mice. Femurs with intact articular surface and periosteum was sterilely dissected under microscope. Upon harvesting, femurs were rinsed with HBSS (Gibco®, Grand Island, N.Y. 14072 USA) and then submerged into DMEM (Gibco, Grand Island, N.Y. 14072 USA) medium supplemented with 10% fetal bovine serum (FBS, Gibco®, Grand Island, N.Y. 14072 USA) in 12-well culture dishes. The first-generation cytidine analogue/NRTI-3TC or newest-generation cytidine analogue/NRTI-FTC was added into the medium with desired concentrations. After a total of 48 hrs incubation at 37° C. in an atmosphere of 5% CO2, femurs were rinsed with HBSS and articular cartilage was peeled off using surgical scalpels under dissecting microscope for RNA extraction. Both miRNA and mRNA were extracted using miRNeasy Mini Kit (Qiagen®, Germantown, Md., USA) and reversely transcribed using […] (Qiagen®, Germantown, Md., USA) according to manufacturer's instruction. qPCR was performed using SYBR Green PCR master mix (Qiagen®, Germantown, Md., USA) on a Bio-Rad CFX96 real-time PCR detection system (Bio-Rad®, Hercules, Calif., USA). Amplification conditions are as follows: 95° C. for 10 min, 40 cycles of 95° C. for 10'', 55° C. for 30'', and 72° C. for 30''. 18S ribosomal or GAPDH RNA was used as an internal control gene to normalize the mRNAs level. The ubiquitously expressed snRNA U6 was used as an endogenous control for miRNAs level. […] The primers for miR-365 were purchased from Qiagen. Fold changes of mRNA and miRNAs were calculated by the 2^^(ΔΔCt) method and normalized to 18S/GAPDH or U6 snRNA, respectively.

“Also recorded” adds a separate entry of the source.

In the case of `Nc1nc(=O)n([C@@H]2CS[C@H](CO)O2)cc1F` [FTC, 2′,3′-dideoxy-5-fluoro-3′-thiacytidine], in the data set on 129S6/SvEv mice, the “Adamts5 mRNA in cartilage” value is “significantly repressed”, the “Col10 (Col 10a1) mRNA in cartilage” value was “significantly repressed”, the “Line-1 level in cartilage” value is “inhibition” and the “Mmp13 mRNA in cartilage” value is on record as “significantly repressed”. In the data set on 129S6/SvEv mice, the “miR-365 induction by DMM” value is reported as “significantly prohibit”; the “body weights, drug versus control treatment groups” value is “No appreciable difference”; the “DMM induced proteoglycan loss in surgical knees” value is “effectively prevent”; the “DMM induced OA / cartilage joint degeneration (Safranin O, OARSI quantification)” value is given as “significantly prevented; also recorded: significantly inhibited”. In the data set on HIV patients, the “strict OA (ICD-9-CM 715)” value was “inhibiting”. In addition, in data set [1], the Acan expression result was “induces; also recorded: increased”, the Adamts5 expression entry was “inhibits; also recorded: significantly inhibited”, the “Col2 (Col2a1) expression” value is recorded as “increased” and the “Col10 (Col10a1) expression” value is on record as “significantly inhibited”. Besides, in data set [1], the “Ifn-α mRNA level” value is “significantly inhibited”, the “Ihh mRNA level” value is given as “significantly inhibited”, the “Line-1 (L1) levels” value is on record as “significantly inhibited” and the “Mmp3 mRNA level” value is given as “significantly inhibited”. The Mmp13 expression result in data set [1] is given as “inhibits; also recorded: significantly inhibited”.
`Nc1ccn([C@@H]2CS[C@H](CO)O2)c(=O)n1` [3TC, lamivudine]: in the data set with 129S6/SvEv mice, the “Adamts5 mRNA in cartilage” value is listed as “significantly repressed”, the “Col10 (Col 10a1) mRNA in cartilage” value is given as “significantly repressed”, the “Line-1 level in cartilage” value was “inhibition” and the “Mmp13 mRNA in cartilage” value was “significantly repressed”. Moreover, in the data set on 129S6/SvEv mice, the “miR-365 induction by DMM” value was “significantly prohibit”; the “body weights, drug versus control treatment groups” value was “No appreciable difference”; the “DMM induced proteoglycan loss in surgical knees” value is listed as “effectively prevent”; the “DMM induced OA / cartilage joint degeneration (Safranin O, OARSI quantification)” value is recorded as “significantly prevented; also recorded: significantly inhibited”. In the data set on HIV patients, the “strict OA (ICD-9-CM 715)” value was “inhibiting”. In data set [1], the Acan expression entry was “induces; also recorded: increased”, the Adamts5 expression result was “inhibiting; also recorded: significantly inhibited”, the “Col2 (Col2a1) expression” value is on record as “induces; also recorded: increased” and the “Col10 (Col10a1) expression” value is “inhibiting; also recorded: significantly inhibited”. In data set [1], the “Ifn-α mRNA level” value is reported as “significantly inhibited”, the “Ihh mRNA level” value is “significantly inhibited”, the “Line-1 (L1) levels” value is recorded as “inhibiting; also recorded: significantly inhibited” and the “Mmp3 mRNA level” value is “significantly inhibited”. Also, the Mmp13 expression entry in data set [1] is “inhibiting; also recorded: significantly inhibited”.

These data come from patent US12121530B2, “Composition and methods for treating articulating joint disorders with nucleoside reverse transcriptase inhibitors” (RHODE ISLAND HOSPITAL, priority 2018, dated 2024).
